According to PubChem BioAssay AID1963442 (Molecular Pharmacology Branch, DTP, NCI, 2024):

Test system: MPNST complex spheroid with HUVEC/MSC, growth, % test/control
Test: Anticancer human tumor MPNST cell line growth inhibition [Asc];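 also: compounds left on spheroids for seven days before reading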
Conditions: for IC50: curve of first compound; for viability, T/C: stronger effect = lower value; active = viability on the fitted dose curve at most 10% of control; inactive = the rest
Outline: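 Spheroid model: tumor line + HUVEC + hMSC. Single agents and combinations; top conc. at/near clinical Cmax (10 microM if undetermined), half-log dilutions. DMSO stocks at 800-fold test concentration.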

C=CC(=O)N1CCN(c2nc(=O)n(-c3c(C)ccnc3C(C)C)c3nc(-c4c(O)cccc4F)c(F)cc23)C(C)C1 (centres undefined) + CNC(C)C(=O)NC1CN(S(=O)(=O)c2cccc(S(=O)(=O)N3CCC4CCC(C(=O)NC(c5ccccc5)c5ccccc5)N4C(=O)C(NC(=O)C(C)NC)C3)c2)CCC2CCC(C(=O)NC(c3ccccc3)c3ccccc3)N2C1=O
inactive: viability, T/C (second compound 0.00316 µM, first compound 0.0316 µM) 81.6% | viability, T/C (second compound 0.00316 µM, first compound 0.1 µM) 98.1% | viability, T/C (second compound 0.00316 µM, first compound 0.316 µM) 94.1% | viability, T/C (second compound 0.00316 µM, first compound 1 µM) 102% | viability, T/C (second compound 0.00316 µM, first compound 3.16 µM) 110% | viability, T/C (second compound 0.00316 µM, first compound 10 µM) 128% | viability, T/C (second compound 0.01 µM, first compound 0.0316 µM) 81.2% | viability, T/C (second compound 0.01 µM, first compound 0.1 µM) 101% | viability, T/C (second compound 0.01 µM, first compound 0.316 µM) 84% | viability, T/C (second compound 0.01 µM, first compound 1 µM) 112% | viability, T/C (second compound 0.01 µM, first compound 3.16 µM) 114% | viability, T/C (second compound 0.01 µM, first compound 10 µM) 145% | viability, T/C (second compound 0.0316 µM, first compound 0.0316 µM) 96.1% | viability, T/C (second compound 0.0316 µM, first compound 0.1 µM) 69.1% | viability, T/C (second compound 0.0316 µM, first compound 0.316 µM) 127% | viability, T/C (second compound 0.0316 µM, first compound 1 µM) 109% | viability, T/C (second compound 0.0316 µM, first compound 3.16 µM) 125% | viability, T/C (second compound 0.0316 µM, first compound 10 µM) 185% | viability, T/C (second compound 0.1 µM, first compound 0.0316 µM) 101% | viability, T/C (second compound 0.1 µM, first compound 0.1 µM) 92.7% | viability, T/C (second compound 0.1 µM, first compound 0.316 µM) 117% | viability, T/C (second compound 0.1 µM, first compound 1 µM) 107% | viability, T/C (second compound 0.1 µM, first compound 3.16 µM) 127% | viability, T/C (second compound 0.1 µM, first compound 10 µM) 161% | viability, T/C (second compound 0.316 µM, first compound 0.0316 µM) 73% | viability, T/C (second compound 0.316 µM, first compound 0.1 µM) 79.5% | viability, T/C (second compound 0.316 µM, first compound 0.316 µM) 113% | viability, T/C (second compound 0.316 µM, first compound 1 µM) 106% | viability, T/C (second compound 0.316 µM, first compound 3.16 µM) 115% | viability, T/C (second compound 0.316 µM, first compound 10 µM) 148% | viability, T/C (second compound 1 µM, first compound 0.0316 µM) 98.4% | viability, T/C (second compound 1 µM, first compound 0.1 µM) 99.9% | viability, T/C (second compound 1 µM, first compound 0.316 µM) 102% | viability, T/C (second compound 1 µM, first compound 1 µM) 79% | viability, T/C (second compound 1 µM, first compound 3.16 µM) 143% | viability, T/C (second compound 1 µM, first compound 10 µM) 154%
> 10 µM: IC50 (second compound 0.00316 µM) | IC50 (second compound 0.01 µM) | IC50 (second compound 0.0316 µM) | IC50 (second compound 0.1 µM) | IC50 (second compound 0.316 µM) | IC50 (second compound 1 µM)

CCN1C(C(=O)NC23CCC(C(=O)O)(CC2)CC3)C(c2cccc(Cl)c2F)C2(C(=O)Nc3cc(Cl)ccc32)C12CCCCC2 (centres undefined) + CNC(C)C(=O)NC1CN(S(=O)(=O)c2cccc(S(=O)(=O)N3CCC4CCC(C(=O)NC(c5ccccc5)c5ccccc5)N4C(=O)C(NC(=O)C(C)NC)C3)c2)CCC2CCC(C(=O)NC(c3ccccc3)c3ccccc3)N2C1=O
inactive: viability, T/C (second compound 0.00316 µM, first compound 0.00949 µM) 98.4% | viability, T/C (second compound 0.00316 µM, first compound 0.03 µM) 64.1% | viability, T/C (second compound 0.00316 µM, first compound 0.0949 µM) 79.5% | viability, T/C (second compound 0.00316 µM, first compound 0.3 µM) 85.6% | viability, T/C (second compound 0.00316 µM, first compound 0.949 µM) 74.1% | viability, T/C (second compound 0.00316 µM, first compound 3 µM) 76% | viability, T/C (second compound 0.01 µM, first compound 0.00949 µM) 100% | viability, T/C (second compound 0.01 µM, first compound 0.03 µM) 106% | viability, T/C (second compound 0.01 µM, first compound 0.0949 µM) 86.3% | viability, T/C (second compound 0.01 µM, first compound 0.3 µM) 64.1% | viability, T/C (second compound 0.01 µM, first compound 0.949 µM) 78.9% | viability, T/C (second compound 0.01 µM, first compound 3 µM) 63.4% | viability, T/C (second compound 0.0316 µM, first compound 0.00949 µM) 87.2% | viability, T/C (second compound 0.0316 µM, first compound 0.03 µM) 66.3% | viability, T/C (second compound 0.0316 µM, first compound 0.0949 µM) 69.3% | viability, T/C (second compound 0.0316 µM, first compound 0.3 µM) 70.5% | viability, T/C (second compound 0.0316 µM, first compound 0.949 µM) 68.8% | viability, T/C (second compound 0.0316 µM, first compound 3 µM) 68.1% | viability, T/C (second compound 0.1 µM, first compound 0.00949 µM) 92.9% | viability, T/C (second compound 0.1 µM, first compound 0.03 µM) 77.7% | viability, T/C (second compound 0.1 µM, first compound 0.0949 µM) 70.3% | viability, T/C (second compound 0.1 µM, first compound 0.3 µM) 80.6% | viability, T/C (second compound 0.1 µM, first compound 0.949 µM) 58.5% | viability, T/C (second compound 0.1 µM, first compound 3 µM) 64.6% | viability, T/C (second compound 0.316 µM, first compound 0.00949 µM) 68.8% | viability, T/C (second compound 0.316 µM, first compound 0.03 µM) 71.5% | viability, T/C (second compound 0.316 µM, first compound 0.0949 µM) 86% | viability, T/C (second compound 0.316 µM, first compound 0.3 µM) 68.2% | viability, T/C (second compound 0.316 µM, first compound 0.949 µM) 68.1% | viability, T/C (second compound 0.316 µM, first compound 3 µM) 62.1% | viability, T/C (second compound 1 µM, first compound 0.00949 µM) 97% | viability, T/C (second compound 1 µM, first compound 0.03 µM) 68.2% | viability, T/C (second compound 1 µM, first compound 0.0949 µM) 87.7% | viability, T/C (second compound 1 µM, first compound 0.3 µM) 65.3% | viability, T/C (second compound 1 µM, first compound 0.949 µM) 65.6% | viability, T/C (second compound 1 µM, first compound 3 µM) 70.2%
> 3 µM: IC50 (second compound 0.00316 µM) | IC50 (second compound 0.01 µM) | IC50 (second compound 0.0316 µM) | IC50 (second compound 0.1 µM) | IC50 (second compound 0.316 µM) | IC50 (second compound 1 µM)
